Patent publication US9315443B2, “Liquid cation exchanger” (priority 2011, dated 2016)
“Also recorded” adds a separate entry of the source.

How the values were obtained:
E. coli W3110 [1] = settings: Test 2, culture covered with equal volume of solvent
Method: First a preculture comprising 20 ml of LB medium in a 100-ml baffle flask was inoculated with a cryoculture of the corresponding strain. The culture was cultured overnight at 37° C. with shaking at 200 rpm and was used on the next day, to inoculate an identical main culture to an OD of 0.2. The main cultures (each 30 mL of LB medium) were then incubated further under the same conditions. At an OD of 0.4 to 0.5, the main culture was covered in each case with equal volumes (30 ml) of solvent and was then incubated further.
For determination of the number of CFUs (colony-forming units), in the next tests 0.1-ml samples were taken and were diluted in sterile 0.9% NaCl solution. Suitable dilution steps were plated out on LB-agar plates. After incubation at 34° C. overnight, the colonies that had formed were counted and the CFUs were determined.
In this case two different concentrations of oleic acid were used and the volume was adjusted by adding the corresponding amount of LAME (lauric acid methyl ester).
In this case various amounts of an unsaturated fatty acid were compared with an unsaturated fatty acid with respect to their toxicity when used as liquid cation exchanger. […] The volumes of the various cation exchangers were compared with LAME. The number of CFUs was determined at the start, after 4.5 h and after 24 h.

E. coli BL21(DE3) = test: CFU determination, toxicity of liquid cation exchangers (Example 2); settings: for Number of CFUs after 22 or 24 h relative to t = 0 h: Escherichia coli
Description: 50% DEHPA or lauric acid (15%), in each case dissolved in LAME and with equimolar or 25 mol % loading with ALAME, as liquid cation exchanger, was contacted with an E. coli BL21 (DE3) strain and the influence of these two compounds on the strain's ability to form colonies, expressed in CFUs, was investigated.

E. coli W3110 [2] = test: CFU determination, lowering ALAME toxicity by contacting with a liquid cation exchanger (Example 3); assay type: cell-based; settings: ALAME 0.2% (w/v) dissolved in aqueous systems
[3] = tested on: ALA and ALAME producing E. coli strain BL21 (DE3) T1r pBT10 pACYC:Duet[TAcv]; test: Oxygen transfer rate (OTR) during biotransformation with various ion exchangers (Example 4); assay type: cell-based; settings: 150 mL lauric acid methyl ester with ion exchanger (10% w/w) added to the fermentation broth
Method: The biotransformation of lauric acid methyl ester to aminolauric acid methyl ester was tested in the 8-fold parallel fermentation system of DasGip with various ion exchangers.
1 L reactors were used for the fermentation. The pH probes were calibrated by means of a two-point calibration with standard solutions of pH 4.0 and pH 7.0. The reactors were filled with 300 mL water and were autoclaved for 20 min at 121° C., to ensure sterility. Then the pO2 probes were polarized overnight (for at least 6 h). On the next morning, the water was removed under the clean bench and was replaced with high-cell-density medium with 50 mg/L kanamycin and 34 mg/L chloramphenicol. Next the pO2 probes were calibrated with a single-point calibration (stirrer: 600 rpm/gassing: 10 sL/h air) and the feed, correcting-agent and induction-agent sections were cleaned by Clean-in-Place. For this, the hoses were rinsed with 70% ethanol, then with 1 M NaOH, then with sterile deionized water and finally were filled with the respective media.
The ALA and ALAME producing E. coli strain BL21 (DE3) T1r pBT10 pACYC:Duet[TAcv] was first grown from cryoculture in LB medium (25 mL in a 100 mL baffle flask) with 50 mg/L kanamycin and 34 mg/L chloramphenicol overnight at 37° C. and 200 rpm for approx. 18 h.
The 3 cultures were combined in a shaking flask and the optical density was determined as 7.2. For inoculating the reactors at an optical density of 0.1, in each case 4.2 mL was taken up in a 5 mL syringe and the reactors were inoculated by cannula through a septum.
The experiment carried out can be divided into two phases, growing, in which the cells are to reach a specified optical density, and the subsequent biotransformation, in which the expression of the genes necessary for the biotechnological processes of production of ALAME was induced. The pH values were adjusted on one side with ammonia (12.5%) to pH 6.8. During growing and biotransformation, the dissolved oxygen (DO) in the culture was controlled at 30% by means of the stirrer rotary speed and the gassing rate. Fermentation was carried out as fed batch, wherein feed start, 5 g/Lh glucose feed (500 g/L glucose with 1% MgSO4*7H2O and 2.2% NH4Cl), was triggered by a DO peak. […] Expression of transaminase was induced 2 h after feed start by the automatic addition of IPTG (1 mM). Induction of the alk-genes was effected by manual addition of DCPK (0.025% v/v) 10 h after feed start. The optical density of the culture broths was determined before the start of biotransformation.
The biotransformation phase started 14 h after feed start. For this, 150 mL of a mixture of lauric acid methyl ester and the respective ion exchanger (10% w/w) were added as batch to the fermentation broth. Di(2-ethylhexyl-)phosphoric acid (DEHPA), lauric acid, oleic acid, palmitic acid, palmitoleic acid, stearic acid and a mixture of free fatty acids from the saponification of globe thistle oil were used as ion exchangers. In order to make an amino group donor available for the transaminase, 10.7 mL of an alanine solution (125 g/L) was added to the fermentation broth simultaneously with addition of the organic phase. For sampling, 2 mL of fermentation broth was taken from the vessel and a portion of this was diluted 1/20 in an acetone-HCl mixture (c(HCl)=0.1 mol/L) and extracted. Samples were taken from all 8 reactors at 1.25 h, 3 h, 5 h, 20 h, 22 h and […] after the start of biotransformation. The oxygen transfer rate (OTR) and carbon transfer rate (CTR) were determined during the fermentation by exhaust gas analysis on the DasGip systems. The fermentation was ended 22 h after the start of biotransformation.

E. coli W3110 [4] = test: CFU determination, toxicity of the solvent LAME (Example 1)
Method: Before the determination of CFUs could be undertaken, an LB plate (10 g/L peptone from casein, 5 g/L yeast extract, 10 g/L NaCl) was streaked with E. coli BW3110 and incubated for 24 h. In the evening of the next day, a preculture of this previously streaked plate was inoculated. […] On the next day the preculture with an OD600 of 0.2 was inoculated in 200 mL of M9 medium (Na2HPO4 6.79 g/L; KH2PO4 3.0 g/L; NaCl 0.5 g/L; NH4Cl 1 g/L; 1 mL/L trace element solution, pH 7.4. Trace element solution: HCl 37% (=455.8 g/L) 36.50 g/L; MnCl2*7H2O 1.91 g/L; ZnSO4*7H2O 1.87 g/L; Na-EDTA*2H2O (Titriplex III) 0.84 g/L; H3BO3 0.30 g/L; Na2MoO4*2H2O 0.25 g/L; CaCl2*2H2O 4.70 g/L; FeSO4*7H2O 17.80 g/L; CuCl2*2H2O 0.15 g/L) with 3% glucose (w/v) and incubated for approx. 20 h. After incubation of the main culture, the cells were harvested, centrifuged at 5258 g and 4° C. for 10 min and, with an OD600 of 30, were resuspended in 10 mL of 50 mM Kpi buffer at pH 7.4 (or 25 mM HEPES buffer pH 7.4, when CFU determinations with ALAME were carried out). Both buffer solutions used contained 5% glucose (w/v). Then the bacterial suspension was transferred to the shaking flasks and the solutions of the respective substances were added. After mixing by swirling the flask, 100 μL of the suspension was withdrawn by pipette and put into 900 μL of prepared sterile saline. This corresponded to sampling at time point t0. The mixtures were then incubated at 250 rpm and 30° C. The CFUs were determined over a period of 22 h. First the samples were taken at time points t0, t3, t6 and t22. For some mixtures another sampling time point t1.5 was added and furthermore another additional dilution series was plated out, in order to minimize deviations.
The OD600 was 60. The cells were resuspended in 10 mL Kpi buffer and then mixed in the flask with 5 mL LAME 98% (w/w). One dilution step per assay was plated out.

| Compound | Number of CFUs after 22 or 24 h relative to t = 0 h (E. coli BL21(DE3)) | course of the OTR after addition of the ion exchanger [3] | toxicity to cells concluded from the OTR [3] | other results |
| --- | --- | --- | --- | --- |
| CCCCC(CC)C(=O)O (stereo not drawn) [2-Ethylhexanoic acid] | 0% | – | – | Number of CFUs after 22 or 24 h relative to t = 0 h (E. coli W3110 [1]): 0% |
| COC(=O)CCCCCCCCCCCN [ALAME, 12-aminolauric acid methyl ester] | – | – | – | action on bacteria (E. coli W3110 [2]): bactericidal action |
| CCCCC(CC)COP(=O)(O)OCC(CC)CCCC (stereo not drawn) [DEHPA, di(2-ethylhexyl)phosphoric acid, reference compound] | 0% | drops to 0 within a short time | highly toxic to cells | – |
| CC(C)CCCCCC(=O)O [Isononanoic acid] | 0% | – | – | Number of CFUs after 22 or 24 h relative to t = 0 h (E. coli W3110 [1]): 0% |
| CCCCCCCCCCCC(=O)OC [LAME, lauric acid methyl ester] | – | – | – | percentage drop in the live cell count (E. coli W3110 [4]; 5 mL LAME 98% (w/w) with cells in 10 mL Kpi buffer, OD600 60, after 22 h): 30.3%; number of CFU/mL (E. coli W3110 [4]; 5 mL LAME 98% (w/w) with cells in 10 mL Kpi buffer, OD600 60, over a period of 6 h): remained constant; toxicity of LAME with respect to biotechnologically relevant microorganisms (E. coli W3110 [4]; compared with potassium phosphate buffer (Kpi) as negative control): does not have toxic action; also recorded: relatively low toxicity; tolerance by the strains used (E. coli BL21(DE3); preliminary tests): tolerated well |
| CCCCCCCCCCCC(=O)O [Lauric acid] | 1.2% | intrusion of the OTR, but it is less pronounced | far less toxic than DEHPA | – |
| CCCCCCCC/C=C\CCCCCCCC(=O)O [oleic acid] | – | – | even lower toxicity than the saturated fatty acids | – |
| CCCCCCCCCCCCCCCC(=O)O [palmitic acid] | – | much shallower | far less toxic | – |
| CCCCCC/C=C\CCCCCCCC(=O)O [palmitoleic acid] | – | – | even lower toxicity than the saturated fatty acids | – |
| CCCCCCCCCCCCCCCCCC(=O)O [stearic acid] | – | much shallower | far less toxic | – |
